From ChEMBL document CHEMBL1800071, “Switching reversibility to irreversibility in glycogen synthase kinase 3 inhibitors: clues for specific design of new compounds” (J Med Chem, 2011)
Active and inactive are the calls of the source. The calls are words filed in the database; no cut-off is given here.

Experiments:
[1] = molecular target: T1, Glycogen synthase kinase-3 beta (Homo sapiens, UniProt P49841); assay: Inhibition of GSK3-beta using GS1 as substrate and [gamma-32P]ATP after 20 mins by radiometric assay
Target sequence in this assay (P49841 whole entry): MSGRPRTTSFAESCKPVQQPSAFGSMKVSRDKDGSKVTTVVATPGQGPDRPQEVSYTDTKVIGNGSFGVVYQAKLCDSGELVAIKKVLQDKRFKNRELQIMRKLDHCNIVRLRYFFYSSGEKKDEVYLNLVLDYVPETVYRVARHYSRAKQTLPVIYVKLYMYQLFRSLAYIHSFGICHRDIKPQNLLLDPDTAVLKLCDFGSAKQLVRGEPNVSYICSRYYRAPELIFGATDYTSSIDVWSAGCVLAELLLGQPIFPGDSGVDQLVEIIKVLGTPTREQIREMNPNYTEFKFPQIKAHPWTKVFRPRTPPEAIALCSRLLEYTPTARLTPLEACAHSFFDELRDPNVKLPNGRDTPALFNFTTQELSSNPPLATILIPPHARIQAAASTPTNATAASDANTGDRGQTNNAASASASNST

[2] = molecular target: T1, Glycogen synthase kinase-3 beta; assay: Inhibition of human recombinant GSK3-beta using prephosphorylated polypeptide substrate after 30 mins by Glow-type luminescence assay in presence of 1 uM ATP
Target sequence in this assay (P49841 whole entry): as above

[3] = molecular target: T1, Glycogen synthase kinase-3 beta; assay: Irreversible inhibition of human recombinant GSK3-beta using prephosphorylated polypeptide substrate preincubated with enzyme for 5 to 10 mins measured after 30 mins by Glow-type luminescence assay in presence of 1 uM ATP
Target sequence in this assay (P49841 whole entry, looked up): as the sequence (P49841 whole entry) above

[4] = molecular target: T1, Glycogen synthase kinase-3 beta; assay: Reversible inhibition of human recombinant GSK3-beta using prephosphorylated polypeptide substrate preincubated with enzyme for 5 to 10 mins measured after 30 mins by Glow-type luminescence assay in presence of 1 uM ATP
Target sequence in this assay (P49841 whole entry, looked up): as the sequence (P49841 whole entry) above

[5] = molecular target: T1, Glycogen synthase kinase-3 beta; assay: Covalent binding affinity to human recombinant GSK3-beta by MALDI-TOF analysis
Target sequence in this assay (P49841 whole entry, looked up): as the sequence (P49841 whole entry) above

[6] = Inhibition of GSK3 in granule cerebellar neurons assessed as decrease of tau phosphorylation at Ser396 at 25 uM after 16 hrs by Western blot analysis
[7] = Inhibition of GSK3 in granule cerebellar neurons assessed as […] of tau phosphorylation at 25 uM after 16 hrs by Western blot analysis
[8] = molecular target: Muscarinic acetylcholine receptor (Rattus norvegicus) (UniProt P08482+P08483+P08485+P08911+P10980); assay: Displacement of [3H]-QNB from muscarinic receptor in rat cerebral cortex at 10 uM; format: tissue-based
[9] = molecular target: Dual specificity mitogen-activated protein kinase kinase 1 (Oryctolagus cuniculus) (UniProt P29678); assay: Inhibition of rabbit recombinant MEK1 expressed in Escherichia coli using inactivated MAP kinase as substrate and [gamma-33P]ATP at 10 uM by scintillation counting
Rattus norvegicus [10] = species on record: Rattus norvegicus; assay: Displacement of [3H]-AMPA from AMPA glutaminergic receptor in rat cerebral cortex at 10 uM; format: tissue-based
[11] = molecular target: Adrenergic receptor alpha-2 (Rattus norvegicus) (UniProt P22086+P19328+P22909); assay: Displacement of [3H]-RX821002 from adrenergic A2 receptor in rat cerebral cortex at 10 uM; format: tissue-based
Rattus norvegicus [12] = species on record: Rattus norvegicus; assay: Displacement of [3H]-CGP39653 from NMDA glutaminergic receptor in rat cerebral cortex at 10 uM; format: tissue-based
Rattus norvegicus [13] = species on record: Rattus norvegicus; assay: Displacement of [125I]-alpha-bungarotoxin from alpha-BGTX-sensitive neuronal nicotinic receptor in rat cerebral cortex at 10 uM; format: tissue-based
[14] = molecular target: Proto-oncogene tyrosine-protein kinase Src (Homo sapiens) (UniProt P12931); assay: Inhibition of Src kinase at 10 uM
Rattus norvegicus [15] = species on record: Rattus norvegicus; assay: Displacement of [3H]cytisine from alpha-BGTX-insensitive neuronal nicotinic receptor in rat cerebral cortex at 10 uM; format: tissue-based
[16] = molecular target: D(2) dopamine receptor (Homo sapiens) (UniProt P14416); assay: Displacement of [3H]spiperone form human recombinant D2 receptor expressed in CHO cells at 10 uM; format: cell-based
[17] = molecular target: Insulin receptor (Homo sapiens) (UniProt P06213); assay: Inhibition of human recombinant IRK using poly GT as substrate and [gamma-33P]ATP at 10 uM by scintillation counting
[18] = molecular target: Mitogen-activated protein kinase 1 (Rattus norvegicus) (UniProt P63086); assay: Inhibition of rat recombinant ERK42 expressed in Escherichia coli using MBP as substrate and [gamma-33P]ATP at 10 uM by scintillation counting
[19] = Inhibition of protein kinase A at 100 uM
[20] = molecular target: D(3) dopamine receptor (Homo sapiens) (UniProt P35462); assay: Displacement of [3H]spiperone form human recombinant D3 receptor expressed in CHO cells at 10 uM; format: cell-based
[21] = system: Calcium/calmodulin-dependent protein kinase type II (Rattus norvegicus); assay: Inhibition of rat brain CAM kinase 2 using autocamtide as substrate and [gamma-33P] at 10 uM by scintillation counting
[22] = molecular target: Tyrosine-protein kinase ABL1 (Mus musculus) (UniProt P00520); assay: Inhibition of mouse recombinant Abl expressed in Escherichia coli assessed as phosphopoly Gt formation using poly Gt as substrate at 10 uM by fluorescence polarization method
Bos taurus = species on record: Bos taurus; assay: Inhibition of bovine thymus protein kinase p56 using poly GT as substrate and [gamma-33P]ATP at 10 uM by scintillation counting
[23] = molecular target: Epidermal growth factor receptor (Homo sapiens) (UniProt P00533); assay: Inhibition of EGFR kinase in human A431 cells using poly GAT as substrate and [gamma-33P]ATP at 10 uM by scintillation counting; format: cell-based; conditions: A-431
Rattus norvegicus [24] = species on record: Rattus norvegicus; assay: Displacement of [3H]serotonine from 5-HT receptor in rat cerebral cortex at 10 uM; format: tissue-based

Chain of D(2) dopamine receptor (Homo sapiens) (P14416 whole entry): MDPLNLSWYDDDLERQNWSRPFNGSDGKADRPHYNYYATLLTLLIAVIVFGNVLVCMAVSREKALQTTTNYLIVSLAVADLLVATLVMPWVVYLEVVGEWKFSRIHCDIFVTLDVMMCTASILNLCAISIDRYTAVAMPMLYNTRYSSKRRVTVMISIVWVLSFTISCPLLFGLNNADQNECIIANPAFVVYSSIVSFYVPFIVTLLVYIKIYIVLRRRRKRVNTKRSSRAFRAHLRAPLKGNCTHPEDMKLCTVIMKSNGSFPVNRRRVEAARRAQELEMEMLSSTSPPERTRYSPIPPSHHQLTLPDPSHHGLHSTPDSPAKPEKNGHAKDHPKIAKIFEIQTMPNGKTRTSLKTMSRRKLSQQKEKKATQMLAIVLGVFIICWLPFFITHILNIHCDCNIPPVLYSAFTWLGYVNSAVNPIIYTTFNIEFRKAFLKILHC
Chain of Insulin receptor (Homo sapiens) (P06213 28-758 limits assumed): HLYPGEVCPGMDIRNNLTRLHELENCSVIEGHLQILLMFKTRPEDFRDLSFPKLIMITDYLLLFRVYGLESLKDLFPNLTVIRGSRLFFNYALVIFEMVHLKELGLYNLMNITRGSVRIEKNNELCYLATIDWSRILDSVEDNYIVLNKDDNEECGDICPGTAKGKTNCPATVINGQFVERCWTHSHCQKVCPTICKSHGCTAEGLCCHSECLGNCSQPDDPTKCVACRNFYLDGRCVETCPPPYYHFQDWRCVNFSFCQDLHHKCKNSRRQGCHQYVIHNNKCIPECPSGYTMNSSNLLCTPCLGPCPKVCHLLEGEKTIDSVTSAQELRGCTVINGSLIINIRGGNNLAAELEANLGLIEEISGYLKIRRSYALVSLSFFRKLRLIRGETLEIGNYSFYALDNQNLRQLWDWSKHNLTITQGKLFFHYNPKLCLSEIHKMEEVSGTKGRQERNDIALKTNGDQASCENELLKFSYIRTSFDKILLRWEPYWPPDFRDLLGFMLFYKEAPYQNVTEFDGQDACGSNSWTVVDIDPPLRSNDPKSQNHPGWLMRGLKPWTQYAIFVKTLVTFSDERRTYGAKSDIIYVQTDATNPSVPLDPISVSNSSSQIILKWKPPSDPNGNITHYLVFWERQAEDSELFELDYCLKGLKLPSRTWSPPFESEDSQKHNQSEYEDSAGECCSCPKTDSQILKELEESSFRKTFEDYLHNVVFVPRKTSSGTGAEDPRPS
Chain of Insulin receptor (Homo sapiens) (P06213 763-1382 limits assumed): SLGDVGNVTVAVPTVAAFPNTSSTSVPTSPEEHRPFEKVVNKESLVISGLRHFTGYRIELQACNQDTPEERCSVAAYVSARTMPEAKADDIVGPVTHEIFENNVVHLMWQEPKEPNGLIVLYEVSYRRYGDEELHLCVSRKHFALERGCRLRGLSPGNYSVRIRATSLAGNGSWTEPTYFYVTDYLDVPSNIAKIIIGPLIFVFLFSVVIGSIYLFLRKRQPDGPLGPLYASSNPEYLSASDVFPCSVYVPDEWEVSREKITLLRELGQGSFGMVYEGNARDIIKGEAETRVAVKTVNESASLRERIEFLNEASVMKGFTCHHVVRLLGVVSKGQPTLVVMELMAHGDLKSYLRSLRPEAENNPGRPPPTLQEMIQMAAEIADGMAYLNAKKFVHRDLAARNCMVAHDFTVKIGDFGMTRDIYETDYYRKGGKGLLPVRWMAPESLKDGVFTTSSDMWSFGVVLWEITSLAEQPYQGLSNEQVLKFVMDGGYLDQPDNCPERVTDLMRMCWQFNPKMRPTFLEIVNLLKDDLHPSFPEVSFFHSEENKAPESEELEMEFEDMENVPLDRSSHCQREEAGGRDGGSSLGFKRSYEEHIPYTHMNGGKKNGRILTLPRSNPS
Chain of Mitogen-activated protein kinase 1 (Rattus norvegicus) (P63086 whole entry): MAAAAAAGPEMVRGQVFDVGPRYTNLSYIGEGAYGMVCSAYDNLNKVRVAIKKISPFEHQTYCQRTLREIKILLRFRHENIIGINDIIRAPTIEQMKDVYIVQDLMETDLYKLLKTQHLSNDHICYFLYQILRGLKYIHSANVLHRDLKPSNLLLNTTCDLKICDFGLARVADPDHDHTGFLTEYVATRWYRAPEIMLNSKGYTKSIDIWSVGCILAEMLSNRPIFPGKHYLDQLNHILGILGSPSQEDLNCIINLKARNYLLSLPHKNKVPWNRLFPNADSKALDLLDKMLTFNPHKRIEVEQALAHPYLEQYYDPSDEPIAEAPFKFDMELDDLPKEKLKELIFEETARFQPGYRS
Chain of Tyrosine-protein kinase ABL1 (Mus musculus) (P00520 whole entry): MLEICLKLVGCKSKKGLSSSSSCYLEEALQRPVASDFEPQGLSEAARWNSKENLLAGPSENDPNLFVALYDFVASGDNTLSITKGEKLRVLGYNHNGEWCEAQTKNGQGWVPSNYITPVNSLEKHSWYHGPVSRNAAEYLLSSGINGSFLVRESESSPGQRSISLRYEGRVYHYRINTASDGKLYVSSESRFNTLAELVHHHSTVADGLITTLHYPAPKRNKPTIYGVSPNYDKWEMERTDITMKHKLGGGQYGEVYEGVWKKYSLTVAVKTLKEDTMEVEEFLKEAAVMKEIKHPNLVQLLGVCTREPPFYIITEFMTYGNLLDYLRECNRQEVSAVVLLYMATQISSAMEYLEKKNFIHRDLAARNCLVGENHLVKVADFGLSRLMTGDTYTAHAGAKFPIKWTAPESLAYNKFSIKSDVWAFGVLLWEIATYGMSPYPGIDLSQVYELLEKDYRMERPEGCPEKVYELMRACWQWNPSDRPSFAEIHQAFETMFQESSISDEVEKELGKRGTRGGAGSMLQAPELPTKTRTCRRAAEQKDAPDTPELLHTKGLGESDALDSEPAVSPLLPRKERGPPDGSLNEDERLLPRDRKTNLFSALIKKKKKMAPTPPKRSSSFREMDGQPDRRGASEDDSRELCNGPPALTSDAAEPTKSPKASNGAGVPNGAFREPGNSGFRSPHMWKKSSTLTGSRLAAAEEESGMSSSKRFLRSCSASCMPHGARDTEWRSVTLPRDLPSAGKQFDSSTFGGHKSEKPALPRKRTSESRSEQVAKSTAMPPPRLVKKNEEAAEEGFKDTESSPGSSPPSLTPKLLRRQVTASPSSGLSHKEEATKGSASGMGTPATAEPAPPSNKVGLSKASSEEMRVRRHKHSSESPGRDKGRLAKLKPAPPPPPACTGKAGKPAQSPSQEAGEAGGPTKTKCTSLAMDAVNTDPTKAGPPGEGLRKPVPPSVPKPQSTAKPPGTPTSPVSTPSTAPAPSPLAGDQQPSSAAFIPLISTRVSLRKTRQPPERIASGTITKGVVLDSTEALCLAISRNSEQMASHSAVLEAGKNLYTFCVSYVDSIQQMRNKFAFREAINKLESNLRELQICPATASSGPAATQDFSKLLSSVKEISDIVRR
Chain of Proto-oncogene tyrosine-protein kinase Src (Homo sapiens) (P12931 2-536 limits assumed): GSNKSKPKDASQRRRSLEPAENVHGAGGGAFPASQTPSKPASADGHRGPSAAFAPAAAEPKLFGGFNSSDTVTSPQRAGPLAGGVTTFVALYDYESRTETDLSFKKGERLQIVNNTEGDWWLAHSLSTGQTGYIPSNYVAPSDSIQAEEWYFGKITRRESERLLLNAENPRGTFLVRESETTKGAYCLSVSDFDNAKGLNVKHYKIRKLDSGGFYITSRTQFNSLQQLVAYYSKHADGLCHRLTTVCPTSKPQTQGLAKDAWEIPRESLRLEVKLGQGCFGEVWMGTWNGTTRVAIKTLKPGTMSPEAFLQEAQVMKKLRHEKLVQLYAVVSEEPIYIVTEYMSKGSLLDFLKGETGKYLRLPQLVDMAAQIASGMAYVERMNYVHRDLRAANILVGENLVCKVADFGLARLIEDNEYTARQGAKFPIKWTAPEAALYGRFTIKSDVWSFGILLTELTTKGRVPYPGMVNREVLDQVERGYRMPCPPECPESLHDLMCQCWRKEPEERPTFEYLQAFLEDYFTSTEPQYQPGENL
Chain of D(3) dopamine receptor (Homo sapiens) (P35462 whole entry): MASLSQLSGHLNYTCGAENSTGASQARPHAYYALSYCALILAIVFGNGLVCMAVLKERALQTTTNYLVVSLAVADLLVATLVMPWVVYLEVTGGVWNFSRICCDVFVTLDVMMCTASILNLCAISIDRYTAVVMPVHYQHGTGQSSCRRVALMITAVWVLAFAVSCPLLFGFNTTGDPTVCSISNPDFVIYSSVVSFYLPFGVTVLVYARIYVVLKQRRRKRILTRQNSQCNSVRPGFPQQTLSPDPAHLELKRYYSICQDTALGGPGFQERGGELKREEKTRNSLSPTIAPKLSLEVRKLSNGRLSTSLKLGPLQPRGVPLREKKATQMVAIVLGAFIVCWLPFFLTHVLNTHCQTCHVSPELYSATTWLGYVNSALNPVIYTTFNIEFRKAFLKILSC

With O=C(CSc1ccccc1)c1ccc(Br)cc1 the IC50 [1] was greater than 100 µM.

For COc1ccc(-n2cnc3cc(C(=O)CBr)ccc32)cc1, the IC50 [2] was 0.58 µM and the inhibition [3] was “Active”.

Compound [O-][S+](CCl)c1ccc(Br)cc1 (stereo unspecified) has an IC50 [1] greater than 100 µM.

Compound O=C(c1ccc(I)cc1)C(Br)Br has an IC50 [1] of 2 µM.

For CC(=O)C1=C(c2cn(C)c3ccccc23)C(=O)NC1=O, the inhibition [4] was “Active”, the Activity [5] was “Active” and the IC50 [2] was 0.89 µM.

For O=C(CBr)C1=C(c2c[nH]c3ccccc23)C(=O)NC1=O, the IC50 [2] was 0.047 µM and the inhibition [3] was “Active”.

With O=C(CBr)c1ccc(C(F)(F)F)cc1 the IC50 [1] was 5 µM.

For Nc1c(Br)cc(C(=O)C(Br)Br)cc1Br, the IC50 [1] was 0.5 µM.

Work on O=C(c1ccccn1)C(Br)Br yielded an IC50 [1] of 2.5 µM.

For [Cl-].[Li+], the inhibition [6] was “Active” and the inhibition [7] was “Active”.

In the case of Cn1cc(C2=C(C(=O)CBr)C(=O)NC2=O)c2ccccc21, the Activity [5] is reported as “Active”, the IC50 [2] is reported as 0.005 µM and the inhibition [3] is reported as “Active”.

For O/N=C(\CBr)c1ccc(Br)cc1, the IC50 [1] was greater than 100 µM.

Work on O=C(CBr)c1ccc(Br)cc1 yielded an inhibition [8] of less than 10%, an inhibition [9] of less than 10% and an inhibition (Rattus norvegicus [10]) of less than 10%. It also gave an inhibition [11] of less than 10%, an inhibition (Rattus norvegicus [12]) of less than 10% and an inhibition (Rattus norvegicus [13]) of less than 10%. For the same compound, the inhibition [14] was 38%, the inhibition (Rattus norvegicus [15]) was 16% and the inhibition [16] was less than 10%. The inhibition [17] was less than 10%, the inhibition [18] was less than 10% and the inhibition [19] was “inactive”. It also gave an inhibition [20] of less than 10%, an inhibition [21] of less than 10% and an inhibition [22] of less than 10%. It also gave an inhibition (Bos taurus) of 29%, an inhibition [23] of 18% and an inhibition (Rattus norvegicus [24]) of less than 10%.

With CC(=O)C1=C(c2c[nH]c3ccccc23)C(=O)NC1=O the inhibition [4] was “Active” and the IC50 [2] was 4.47 µM.

Compound O=C(CO)c1ccc(Br)cc1 has an IC50 [1] greater than 100 µM.

Nc1ncnc2c1ncn2C(=O)CCl showed an IC50 [2] of 13.4 µM.

O=C(CN1C(=O)c2ccccc2C1=O)c1ccc(Br)cc1 gave an IC50 [1] of 100 µM.

In the case of CCSCC(=O)c1ccc(Br)cc1, the IC50 [1] is reported as greater than 10 µM.

COc1ccc(-n2cnc3cc(C(C)=O)ccc32)cc1 gave an IC50 [2] greater than 10 µM.

With O=C(CBr)c1ccc(N2CCOCC2)cc1 the IC50 [1] was 6 µM.

Compound N#Cc1ccc(C(=O)C(Br)Br)cc1 has an IC50 [1] of 1.5 µM.

O=C(CSCc1ccccc1)c1ccc(Br)cc1 gave an IC50 [1] greater than 10 µM.

N#Cc1cccc(C(=O)C(Br)Br)c1 gave an IC50 [1] of 1 µM.

In the case of O=C(c1ccc(C(F)(F)F)cc1)C(Br)Br, the IC50 [1] is reported as 5 µM.

Work on O=C(CCl)c1ccc(Cl)cc1 yielded an inhibition [8] of less than 10%, an inhibition [9] of less than 10% and an inhibition (Rattus norvegicus [10]) of less than 10%. It also gave an inhibition [11] of less than 10%, an inhibition (Rattus norvegicus [12]) of 15% and an inhibition (Rattus norvegicus [13]) of less than 10%. The inhibition [14] was 19%, the inhibition (Rattus norvegicus [15]) was less than 10% and the inhibition [16] was less than 10%. The inhibition [17] was less than 10%, the inhibition [18] was less than 10% and the inhibition [19] was “inactive”. The inhibition [20] was less than 10%, the inhibition [21] was 16% and the inhibition [22] was less than 10%. For the same compound, the inhibition (Bos taurus) was less than 10%, the inhibition [23] was less than 10% and the inhibition (Rattus norvegicus [24]) was less than 10%.

NCC(=O)c1ccc(Br)cc1 gave an IC50 [1] of 100 µM.

For CC(=O)n1cnc2c(N)ncnc21, the IC50 [2] was greater than 50 µM.

CO/N=C(\CBr)c1ccc(Br)cc1 showed an IC50 [1] of 50 µM.

With CC(=O)OCC(=O)c1ccc(Br)cc1 the IC50 [1] was greater than 100 µM.
